From patent publication US20240058310A1, “METHODS OF TREATING DISEASES AND DISORDERS ASSOCIATED WITH CALCIUM ION SIGNALING” (Temple University-Of the Commonwealth System of Higher …, priority 2022, published 2024)

Assays:
[1] = system: melanoma metastasis; settings: mice; literature reports; cited from earlier work
[2] = system: SOCE in B16N murine melanoma cells; test: SOCE measurement (Fura2, Tg then Ca2+ re-addition) in B16N cells; assay type: cell-based; settings: B16N control, UV2, UV5, O1C44; 2 μM IA65
Description: (§1) UV Exposure—Cells were plated on glass coverslips for 24 hours before changing to PBS. Lids were replaced with a thin layer of taut plastic wrap before irradiating with a broadband UV spectrum containing 35% UVA and 65% UVB (with peak emission at 313 nm in the UVB range (De Fabo, E. C., et al, 2004, Cancer Research, 64:6372-6376)). Cells received a total UV dose of 175 J/m^2 over 90 seconds at a rate of 1.94 W/m^2. Approximately 80% of the melanoma cells survive this exposure. Cells were passaged 1:10 every 3 days and cultured under growth optimal conditions for the indicated time period (see Cell Culture below) before subsequent experimentation.
(§2) SOCE Measurement—Cells grown on glass coverslips were incubated in a cation-safe buffer (107 mM NaCl, 7.2 mM KCl, 1.2 mM MgCl2, 11.5 mM Glucose, 20 mM HEPES-NaOH, 1 mM CaCl2, pH 7.2) and loaded with Fura2-acetoxymethylester (Fura2-AM; 2 μM) for 30 min at 24° C. as previously described (Go, C. K., et al, 2019, Science Signaling, 12; Hooper, R., et al., 2015, Molecular and Cellular Biology, 35:2790-2798). Cells were washed and allowed to de-esterify for a minimum of 30 min at 24° C. […] Ca^2+ measurements were taken using a Leica DMI 6000B fluorescence microscope controlled by Slidebook software (Intelligent Imaging Innovations, Denver, CO). […]

[3] = system: SOCE in WM983 human melanoma cells; test: SOCE measurement (Fura2, Tg then Ca2+ re-addition) in WM983 cells; assay type: cell-based
Description: as §1
(§3) SOCE Measurement—Cells grown on glass coverslips were incubated in a cation-safe buffer (107 mM NaCl, 7.2 mM KCl, 1.2 mM MgCl2, 11.5 mM Glucose, 20 mM HEPES-NaOH, 1 mM CaCl2, pH 7.2) and loaded with Fura2-acetoxymethylester (Fura2-AM; 2 μM) for 30 min at 24° C. as previously described (Go, C. K., et al, 2019, Science Signaling, 12; Hooper, R., et al., 2015, Molecular and Cellular Biology, 35:2790-2798). Cells were washed and allowed to de-esterify for a minimum of 30 min at 24° C. Following de-esterification, cells were treated with 2 μM Thapsigargin (SERCA inhibitor) for 10 minutes prior to imaging. Ca^2+ measurements were taken using a Leica DMI 6000B fluorescence microscope controlled by Slidebook software (Intelligent Imaging Innovations, Denver, CO). Fluorescence emission at 505 nm was monitored in response to excitation at alternating 340 nm and 380 nm wavelengths at a frequency of 0.67 Hz; intracellular Ca^2+ measurements are shown at 340/380 nm ratios obtained from groups (2-45 for patient samples, 35-45 for established cell lines) of single cells.

[4] = system: SOCE in patient melanoma surgical explant cells; test: SOCE measurement in cells from patient surgical explants; assay type: cell-based, human; settings: patient explant cells treated with drug in presence of Tg, 15 minutes
Description: as §3
Isolation of Cells from Patient Surgical Explants—Tissue was incubated in DMEM containing Liberase® TL (Roche Applied Science; 37° C., 30 min). Following incubation, tissue was cut using a sharp razor and dissociated through 50 μM Medicon screens (Becton Dickinson Biosciences, San Jose, CA; 2 min). […]

[5] = system: B16N murine melanoma cells; test: Matrigel transwell invasion assay, B16N cells; assay type: cell-based; design: invasion (Matrigel transwell): dose or concentration left out as unconfirmed
Description: (§4) Transwell Migration Assays—Transwell migration assays were performed as previously described (Hooper, R., et al., 2015, Molecular & Cellular Biology, 35:2790-2798). Briefly, Matrigel® transwell chambers (Corning, Bedford, MA) were hydrated with serum-free OptiMEM for 2 hours (37° C., 5% CO2) prior to the addition of 2,500 cells/well. Growth optimal media was placed on the bottom of the chamber prior to incubation (20 hours; 37° C., 5% CO2). After incubation, media was removed, and edges were cleaned before methanol fixation and staining with crystal violet (0.5%, 2 min). Images were taken by EVOS cell imager and quantified on ImageJ.

[6] = system: WM983 human melanoma cells; test: Matrigel transwell invasion assay, WM983 cells; assay type: cell-based; design: invasion (Matrigel transwell): dose or concentration left out as unconfirmed
Description: as §4

[7] = system: patient melanoma surgical explant cells; test: Matrigel transwell invasion assay, patient explant cells; assay type: cell-based, human; settings: TAK475 10 μM, compactin 2 μM, IA65 2 μM or OSMI1 40 μM; 20 hours
Description: as §4
Isolation of Cells from Patient Surgical Explants—Tissue was incubated in DMEM containing Liberase® TL (Roche Applied Science; 37° C., 30 min). Following incubation, tissue was cut using a sharp razor and dissociated through 50 μM Medicon screens (Becton Dickinson Biosciences, San Jose, CA; 2 min). Tissue samples were resuspended in DFD media (DMEM, 20% FBS; 500 ug/ml DNAse I, Sigma, St. Louis, MO) and passed through an 18-gauge syringe to break up clumps of cells before filtration (70 μm, Corning, Glendale, AZ, centrifugation and resuspension in DMEM (2% FBS; 1% Gentamycin) for 3 days before use.

[8] = system: WM983 human melanoma cells; test: Scratch (wound) migration assay, WM983 cells; assay type: cell-based; settings: 2 μM IA65, 0-, 10-, 20-hour
Description: Migration Assay—Cells were plated on glass coverslips (Ibidi, Fitchburg, WI) overnight to form a complete monolayer before “wounding” with a p20 pipette tip. Coverslips were placed in an incubation chamber (37° C.; 5% CO2) and monitored by confocal microscopy (Leica SP8 Laser Scanning Microscope). Z-stack brightfield images were obtained every 20 minutes for 20 hours; the % of the wound that was refilled over time was calculated using ImageJ.

[9] = system: melanoma cells (WM983, B16N); test: Viability assay (Trypan Blue); assay type: cell-based; settings: 2 μM IA65 overnight, control, UV2, UV5 cells
Description: Viability Assays—500,000 cells were plated in 24 well plates overnight in the absence or presence of 2 μM IA65. Cells were then trypsinized with 0.25% Trypsin-EDTA for 10 minutes at 37° C. Following, cells were treated with 0.4% Trypan Blue and placed in a Bio-Rad slidereader and the number of stained vs. unstained cells compared.

[10] = system: SOCE in UACC257 human melanoma cells; test: SOCE measurement (Fura2, Tg then Ca2+ re-addition) in UACC257 cells; assay type: cell-based; settings: non-SOCE suppressed UACC257 UV5 cells; overnight treatment
Description: as §1, §2

SMILES: O=C(O)Cc1cccc(OCCCN(Cc2cccc(C(F)(F)F)c2Cl)CC(c2ccccc2)c2ccccc2)c1 [GW3965]
- melanoma metastasis [1]: suppressed

SMILES: O=C(O)c1ccc(Nc2nc(C(F)(F)F)c(-c3ccccc3)s2)cc1 [IA65, 4-((5-Phenyl-4-(trifluoromethyl)thiazol-2-yl)amino)benzoic acid]
- SOCE (reversal of SOCE suppression) [2]: reversal of SOCE suppression
- UV-induced SOCE suppression ([3]; UV2 and UV5 WM983 cells, 2 μM IA65, 15 minutes): strikingly reversed UV-induced SOCE suppression
- SOCE ([3]; untreated (non-irradiated) WM983 cells, 2 μM IA65, 15 minutes): no effect
- change in SOCE in patient samples [4]: No significant effect
- invasion through Matrigel transwell ([5]; B16N control, UV2, UV5, O1C44, 2 μM IA65): inhibition of invasiveness
- invasion through Matrigel in a transwell assay ([6]; WM983 control, UV2, UV5, 2 μM IA65, 20 hours): failed to invade
- invasion in vitro of patient cells [7]: diminished invasion
- UV-induced enhanced cell migration (scratch) [8]: did not have UV-induced enhanced cell migration
- cell viability [9]: no effect

SMILES: COc1ccccc1[C@@H](NS(=O)(=O)c1ccc2[nH]c(=O)ccc2c1)C(=O)N(Cc1ccco1)Cc1cccs1 [OSMI1]
- invasion (Matrigel transwell) ([5]; SOCE-suppressed B16N cells, siRNA targeting OGT): reduced invasion
- invasion (Matrigel transwell) ([6]; SOCE-suppressed WM983 cells, siRNA targeting OGT): reduced invasion
- invasion in vitro of patient cells [7]: diminished invasion

SMILES: O=S(=O)(c1ccccc1)N(CC(F)(F)F)c1ccc(C(O)(C(F)(F)F)C(F)(F)F)cc1 [T0901317]
- melanoma metastasis [1]: suppressed

SMILES: COc1cccc([C@H]2O[C@H](CC(=O)N3CCC(CC(=O)O)CC3)C(=O)N(CC(C)(C)COC(C)=O)c3ccc(Cl)cc32)c1OC [TAK475]
- SOCE ([3]; UV5 WM983 cells, 24 hr treatment): markedly enhanced
- SOCE ([3]; untreated WM983 cells, cholesterol synthesis inhibitor overnight): neither agent significantly affected SOCE
- SOCE [10]: no change
- change in SOCE in patient samples [4]: significantly enhanced SOCE
- UV-induced increases in melanoma invasiveness through Matrigel ([6]; UV5 WM983 cells, transwell, 20 hours): abrogated UV-induced increases in melanoma invasiveness
- invasiveness through Matrigel ([6]; untreated (control) WM983 cells): no effect on invasiveness
- invasion in vitro of patient cells [7]: diminished invasion
